The record followed here is ChEMBL document CHEMBL5291721, “A preclinical secondary pharmacology resource illuminates target-adverse drug reaction associations of marketed drugs” (Nat Commun, 2023).

Where only a bound is given, the exact number is not on record here.

In assay [1] the target is T1, Alpha-2A adrenergic receptor (Homo sapiens, UniProt P08913).
T1 sequence (P08913 whole entry): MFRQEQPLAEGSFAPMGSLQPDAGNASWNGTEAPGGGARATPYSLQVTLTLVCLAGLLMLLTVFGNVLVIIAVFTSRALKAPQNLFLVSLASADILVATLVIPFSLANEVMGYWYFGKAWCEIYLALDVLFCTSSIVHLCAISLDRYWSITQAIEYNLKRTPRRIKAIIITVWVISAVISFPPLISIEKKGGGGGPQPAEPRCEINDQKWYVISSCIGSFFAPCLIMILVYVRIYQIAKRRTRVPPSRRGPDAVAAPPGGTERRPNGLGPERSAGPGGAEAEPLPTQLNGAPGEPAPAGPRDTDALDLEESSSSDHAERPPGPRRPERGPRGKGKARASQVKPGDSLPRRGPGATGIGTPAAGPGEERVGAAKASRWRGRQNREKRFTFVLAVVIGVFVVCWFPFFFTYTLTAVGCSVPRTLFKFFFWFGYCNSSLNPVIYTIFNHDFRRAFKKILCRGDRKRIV
The format is functional, cell-based.

The target in assay [2] is Gamma-aminobutyric acid receptor subunit alpha-1/alpha-2/beta-2/gamma-2 (Homo sapiens, UniProt P14867+P18507+P47869+P47870). It is filed as functional, cell-based.
Chain of Gamma-aminobutyric acid receptor subunit alpha-1/alpha-2/beta-2/gamma-2 (P14867 whole entry): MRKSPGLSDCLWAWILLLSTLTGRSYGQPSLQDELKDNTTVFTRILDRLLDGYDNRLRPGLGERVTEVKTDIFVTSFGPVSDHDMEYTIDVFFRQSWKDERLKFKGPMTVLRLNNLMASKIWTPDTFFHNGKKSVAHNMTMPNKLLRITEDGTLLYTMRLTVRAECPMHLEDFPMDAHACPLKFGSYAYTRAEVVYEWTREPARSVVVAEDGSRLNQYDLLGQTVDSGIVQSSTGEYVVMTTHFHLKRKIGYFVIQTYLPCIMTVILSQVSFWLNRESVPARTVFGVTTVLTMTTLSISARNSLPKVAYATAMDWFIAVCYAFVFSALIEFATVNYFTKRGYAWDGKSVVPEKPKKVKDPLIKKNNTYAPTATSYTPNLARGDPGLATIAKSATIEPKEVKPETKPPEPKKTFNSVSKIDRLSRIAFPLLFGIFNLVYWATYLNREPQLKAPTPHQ
Chain of Gamma-aminobutyric acid receptor subunit alpha-1/alpha-2/beta-2/gamma-2 (P47870 whole entry): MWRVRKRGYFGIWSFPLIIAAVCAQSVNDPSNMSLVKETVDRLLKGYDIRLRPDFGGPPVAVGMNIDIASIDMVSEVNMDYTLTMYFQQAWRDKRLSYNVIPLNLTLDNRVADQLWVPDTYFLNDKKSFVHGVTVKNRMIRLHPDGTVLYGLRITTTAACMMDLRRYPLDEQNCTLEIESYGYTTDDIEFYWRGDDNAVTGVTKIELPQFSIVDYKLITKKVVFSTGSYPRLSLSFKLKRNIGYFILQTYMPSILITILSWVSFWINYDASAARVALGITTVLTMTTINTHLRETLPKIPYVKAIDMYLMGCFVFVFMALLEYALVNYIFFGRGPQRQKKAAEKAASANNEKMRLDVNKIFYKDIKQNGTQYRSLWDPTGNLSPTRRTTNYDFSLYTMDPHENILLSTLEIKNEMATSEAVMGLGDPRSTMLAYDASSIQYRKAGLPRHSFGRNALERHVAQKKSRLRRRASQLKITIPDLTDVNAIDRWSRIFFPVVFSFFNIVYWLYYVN
Chain of Gamma-aminobutyric acid receptor subunit alpha-1/alpha-2/beta-2/gamma-2 (P18507 whole entry): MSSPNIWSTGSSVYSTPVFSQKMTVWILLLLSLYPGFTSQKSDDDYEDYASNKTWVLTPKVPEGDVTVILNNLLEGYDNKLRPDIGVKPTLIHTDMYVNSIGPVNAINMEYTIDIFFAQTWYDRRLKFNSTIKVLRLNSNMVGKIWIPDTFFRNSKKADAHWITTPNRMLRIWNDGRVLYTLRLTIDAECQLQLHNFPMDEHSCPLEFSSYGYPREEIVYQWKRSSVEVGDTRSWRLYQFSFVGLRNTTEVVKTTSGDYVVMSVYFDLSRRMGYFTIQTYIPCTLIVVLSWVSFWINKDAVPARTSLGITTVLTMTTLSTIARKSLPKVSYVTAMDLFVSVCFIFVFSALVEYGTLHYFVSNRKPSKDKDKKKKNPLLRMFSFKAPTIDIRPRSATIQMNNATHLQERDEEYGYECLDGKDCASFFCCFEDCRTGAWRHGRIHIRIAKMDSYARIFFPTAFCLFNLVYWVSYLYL
Chain of Gamma-aminobutyric acid receptor subunit alpha-1/alpha-2/beta-2/gamma-2 (P47869 whole entry): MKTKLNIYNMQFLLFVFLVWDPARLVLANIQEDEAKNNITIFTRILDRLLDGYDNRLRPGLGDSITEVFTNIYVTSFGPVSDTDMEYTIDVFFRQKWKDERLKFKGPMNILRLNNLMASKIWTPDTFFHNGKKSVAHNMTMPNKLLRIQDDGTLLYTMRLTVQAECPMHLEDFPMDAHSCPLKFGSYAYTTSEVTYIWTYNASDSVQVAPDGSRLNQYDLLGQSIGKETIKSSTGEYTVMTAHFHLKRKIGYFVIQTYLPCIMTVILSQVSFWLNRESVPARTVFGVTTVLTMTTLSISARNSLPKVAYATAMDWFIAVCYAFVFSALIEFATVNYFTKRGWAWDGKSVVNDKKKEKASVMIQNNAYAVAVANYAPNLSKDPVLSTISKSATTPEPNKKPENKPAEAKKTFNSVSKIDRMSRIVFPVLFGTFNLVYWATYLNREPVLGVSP
The target in assay [3] is Growth hormone secretagogue receptor type 1 (Homo sapiens, UniProt Q92847).
Chain of Growth hormone secretagogue receptor type 1 (Q92847 whole entry): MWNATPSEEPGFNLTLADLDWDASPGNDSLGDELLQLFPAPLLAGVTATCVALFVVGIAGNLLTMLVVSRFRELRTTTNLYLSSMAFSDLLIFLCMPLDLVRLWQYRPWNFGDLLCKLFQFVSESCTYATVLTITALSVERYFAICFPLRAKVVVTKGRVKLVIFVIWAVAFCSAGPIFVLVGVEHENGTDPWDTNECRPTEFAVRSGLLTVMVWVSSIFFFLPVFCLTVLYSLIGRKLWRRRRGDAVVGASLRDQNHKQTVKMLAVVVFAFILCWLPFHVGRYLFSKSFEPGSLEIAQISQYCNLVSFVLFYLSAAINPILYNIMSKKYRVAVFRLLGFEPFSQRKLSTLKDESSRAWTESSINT
Assay [4] has as its target Sodium-dependent serotonin transporter (Homo sapiens, UniProt P31645).
Assay [5] has as its target T2, Equilibrative nucleoside transporter 1 (Homo sapiens, UniProt Q99808).
T2 sequence (Q99808 whole entry): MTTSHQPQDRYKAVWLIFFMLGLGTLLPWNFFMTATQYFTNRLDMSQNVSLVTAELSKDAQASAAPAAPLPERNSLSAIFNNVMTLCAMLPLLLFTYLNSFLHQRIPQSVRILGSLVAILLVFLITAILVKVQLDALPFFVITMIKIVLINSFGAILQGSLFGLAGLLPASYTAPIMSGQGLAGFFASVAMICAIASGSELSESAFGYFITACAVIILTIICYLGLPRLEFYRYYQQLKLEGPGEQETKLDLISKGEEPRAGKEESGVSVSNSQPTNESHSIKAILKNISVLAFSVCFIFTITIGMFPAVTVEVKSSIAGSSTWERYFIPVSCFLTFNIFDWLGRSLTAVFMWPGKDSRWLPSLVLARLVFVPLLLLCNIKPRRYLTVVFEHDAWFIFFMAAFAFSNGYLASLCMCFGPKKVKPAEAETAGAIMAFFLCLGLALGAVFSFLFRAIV

In another assay the target is Cannabinoid receptor 1 (Homo sapiens, UniProt P21554). The format is functional, cell-based.
Chain of Cannabinoid receptor 1 (P21554 whole entry): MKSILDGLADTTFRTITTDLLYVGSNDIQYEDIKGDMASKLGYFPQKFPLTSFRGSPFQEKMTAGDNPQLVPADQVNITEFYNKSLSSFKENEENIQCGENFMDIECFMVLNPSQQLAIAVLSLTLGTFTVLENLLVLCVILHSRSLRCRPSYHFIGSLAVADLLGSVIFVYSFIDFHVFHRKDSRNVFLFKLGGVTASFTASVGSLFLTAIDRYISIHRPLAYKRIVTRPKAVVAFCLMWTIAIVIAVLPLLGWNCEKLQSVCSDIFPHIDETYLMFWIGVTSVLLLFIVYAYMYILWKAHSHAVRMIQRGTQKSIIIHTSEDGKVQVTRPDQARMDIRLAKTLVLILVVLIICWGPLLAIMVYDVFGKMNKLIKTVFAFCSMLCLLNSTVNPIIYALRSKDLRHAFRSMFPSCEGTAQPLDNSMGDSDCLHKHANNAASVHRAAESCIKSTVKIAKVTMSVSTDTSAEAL
The target of a further assay is D(3) dopamine receptor (Homo sapiens, UniProt P35462).
Chain of D(3) dopamine receptor (P35462 whole entry): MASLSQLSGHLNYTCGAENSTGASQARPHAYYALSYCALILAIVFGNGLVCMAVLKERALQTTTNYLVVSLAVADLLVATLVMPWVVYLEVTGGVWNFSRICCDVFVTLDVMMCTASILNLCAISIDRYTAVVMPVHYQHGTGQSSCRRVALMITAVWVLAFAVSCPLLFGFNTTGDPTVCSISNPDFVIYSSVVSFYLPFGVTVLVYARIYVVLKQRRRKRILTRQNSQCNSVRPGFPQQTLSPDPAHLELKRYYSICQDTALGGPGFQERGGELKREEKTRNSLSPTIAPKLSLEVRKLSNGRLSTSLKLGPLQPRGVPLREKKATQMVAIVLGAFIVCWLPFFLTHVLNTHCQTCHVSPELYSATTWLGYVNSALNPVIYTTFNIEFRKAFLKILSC
Assay [6] concerns the target T3, Muscarinic acetylcholine receptor M2 (Homo sapiens, UniProt P08172).
T3 sequence (P08172 whole entry): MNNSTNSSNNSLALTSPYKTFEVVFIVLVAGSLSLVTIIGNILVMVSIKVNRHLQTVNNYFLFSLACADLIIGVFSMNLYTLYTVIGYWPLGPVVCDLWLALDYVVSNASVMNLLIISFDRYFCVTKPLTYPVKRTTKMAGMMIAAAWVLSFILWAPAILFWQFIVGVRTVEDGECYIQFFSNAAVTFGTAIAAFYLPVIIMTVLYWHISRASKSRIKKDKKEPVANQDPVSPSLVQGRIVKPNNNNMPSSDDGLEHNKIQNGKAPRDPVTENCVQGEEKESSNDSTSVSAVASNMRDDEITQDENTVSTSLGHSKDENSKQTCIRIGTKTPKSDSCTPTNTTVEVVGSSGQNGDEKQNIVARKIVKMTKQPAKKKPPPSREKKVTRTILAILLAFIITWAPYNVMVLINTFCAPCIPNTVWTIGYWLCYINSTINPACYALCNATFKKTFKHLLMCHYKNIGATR
The format is functional, cell-based.

The target of another assay is T4, Adenosine receptor A1 (Homo sapiens, UniProt P30542).
T4 sequence (P30542 whole entry): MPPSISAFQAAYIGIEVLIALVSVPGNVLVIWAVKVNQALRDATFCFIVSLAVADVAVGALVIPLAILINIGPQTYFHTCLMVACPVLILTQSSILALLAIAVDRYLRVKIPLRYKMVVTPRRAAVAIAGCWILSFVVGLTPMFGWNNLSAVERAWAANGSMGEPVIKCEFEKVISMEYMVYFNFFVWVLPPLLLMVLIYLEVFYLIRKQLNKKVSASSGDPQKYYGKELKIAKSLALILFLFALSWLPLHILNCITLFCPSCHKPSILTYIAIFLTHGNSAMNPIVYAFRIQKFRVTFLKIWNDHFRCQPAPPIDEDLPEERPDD

Assay [7] deals with Gamma-aminobutyric acid receptor subunit alpha-1 (Rattus norvegicus, UniProt P62813).
Chain of Gamma-aminobutyric acid receptor subunit alpha-1 (P62813 whole entry): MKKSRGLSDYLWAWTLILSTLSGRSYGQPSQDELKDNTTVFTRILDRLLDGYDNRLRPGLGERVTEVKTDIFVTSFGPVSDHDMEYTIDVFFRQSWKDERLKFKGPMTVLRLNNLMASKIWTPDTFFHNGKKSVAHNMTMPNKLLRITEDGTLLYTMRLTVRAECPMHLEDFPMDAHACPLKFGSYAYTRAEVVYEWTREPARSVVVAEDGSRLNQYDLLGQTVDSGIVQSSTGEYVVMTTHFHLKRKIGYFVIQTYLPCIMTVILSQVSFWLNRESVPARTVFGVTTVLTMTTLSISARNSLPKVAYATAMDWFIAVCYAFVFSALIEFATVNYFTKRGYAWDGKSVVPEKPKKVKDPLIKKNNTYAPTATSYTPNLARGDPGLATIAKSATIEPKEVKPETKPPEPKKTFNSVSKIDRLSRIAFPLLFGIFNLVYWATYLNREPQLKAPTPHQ
The next assay addresses T5, Thromboxane A2 receptor (Homo sapiens, UniProt P21731).
T5 sequence (P21731 whole entry): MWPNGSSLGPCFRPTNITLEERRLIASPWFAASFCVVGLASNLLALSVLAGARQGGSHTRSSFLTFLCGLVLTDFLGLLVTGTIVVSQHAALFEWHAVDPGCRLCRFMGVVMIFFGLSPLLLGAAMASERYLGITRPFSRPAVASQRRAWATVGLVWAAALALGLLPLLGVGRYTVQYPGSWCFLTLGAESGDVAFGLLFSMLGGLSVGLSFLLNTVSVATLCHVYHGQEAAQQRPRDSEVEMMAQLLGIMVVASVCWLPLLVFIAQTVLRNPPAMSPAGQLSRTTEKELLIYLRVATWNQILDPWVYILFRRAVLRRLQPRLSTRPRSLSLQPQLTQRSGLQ

Assay [8] has as its target T6, Corticotropin-releasing factor receptor 2 (Homo sapiens, UniProt Q13324).
T6 sequence (Q13324 whole entry): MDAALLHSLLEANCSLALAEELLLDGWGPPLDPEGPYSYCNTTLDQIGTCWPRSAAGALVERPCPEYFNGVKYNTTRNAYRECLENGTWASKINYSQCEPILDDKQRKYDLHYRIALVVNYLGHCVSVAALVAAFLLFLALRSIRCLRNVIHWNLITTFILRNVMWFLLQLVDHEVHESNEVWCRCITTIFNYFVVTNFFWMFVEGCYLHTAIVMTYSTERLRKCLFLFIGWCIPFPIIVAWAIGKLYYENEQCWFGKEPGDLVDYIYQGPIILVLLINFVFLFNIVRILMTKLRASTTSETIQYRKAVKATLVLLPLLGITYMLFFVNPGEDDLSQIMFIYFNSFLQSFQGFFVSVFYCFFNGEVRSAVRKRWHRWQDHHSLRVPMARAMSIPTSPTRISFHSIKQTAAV
Further: assay procedure not described here.

Chain of Sodium-dependent serotonin transporter (P31645 whole entry): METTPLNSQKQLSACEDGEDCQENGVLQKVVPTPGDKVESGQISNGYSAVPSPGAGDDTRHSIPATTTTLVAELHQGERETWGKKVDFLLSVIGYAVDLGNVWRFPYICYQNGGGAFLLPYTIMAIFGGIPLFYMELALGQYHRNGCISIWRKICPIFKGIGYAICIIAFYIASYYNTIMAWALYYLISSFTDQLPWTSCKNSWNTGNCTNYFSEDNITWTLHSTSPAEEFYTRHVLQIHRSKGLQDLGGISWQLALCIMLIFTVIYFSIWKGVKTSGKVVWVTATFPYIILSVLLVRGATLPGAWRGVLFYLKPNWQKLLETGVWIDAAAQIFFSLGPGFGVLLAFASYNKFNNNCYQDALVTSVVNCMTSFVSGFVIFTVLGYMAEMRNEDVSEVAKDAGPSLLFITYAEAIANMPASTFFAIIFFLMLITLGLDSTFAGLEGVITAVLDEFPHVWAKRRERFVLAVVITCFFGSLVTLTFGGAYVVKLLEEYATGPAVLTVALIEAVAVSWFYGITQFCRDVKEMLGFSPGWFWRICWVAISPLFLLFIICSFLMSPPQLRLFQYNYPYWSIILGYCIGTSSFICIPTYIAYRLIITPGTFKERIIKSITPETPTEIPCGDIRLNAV

`CC[C@@H](C(N)=O)N1CCCC1=O`: the AC50 (in assay [1]; in assay [2]; in assay [3]; in [4]; in assay [5]; on Cannabinoid receptor 1) was greater than 30 µM each time. The half-maximal activity concentration (AC50) (on D(3) dopamine receptor; in [6]) was greater than 30 µM throughout.

As for `CCC(CC)(CC(=O)Nc1cccc(/C=C/c2nc(C3CCC3)cs2)c1)C(=O)O`, the half-maximal activity concentration (AC50) (in assay [3]; in [4]; in [5]; on Adenosine receptor A1) was greater than 30 µM in each case.

In the case of `CC(=O)c1ccc2c(c1)N(CCCN(C)C)c1ccccc1S2` [ACEPROMAZINE], the AC50 (commonly the midpoint of the concentration-response curve, whichever way the signal moves) on D(3) dopamine receptor amounted to 0.013 µM.

The compound `Nc1ccncc1N` [AMIFAMPRIDINE] registered a concentration at half-maximal activity (AC50) on Adenosine receptor A1 greater than 30 µM.

As to `CCCC1O[C@@H]2C[C@H]3[C@@H]4CCC5=CC(=O)C=C[C@]5(C)[C@H]4[C@@H](O)C[C@]3(C)[C@]2(C(=O)CO)O1` (stereo partly drawn) [BUDESONIDE], the AC50 in assay [1] was greater than 10 µM; in assay [7] it was greater than 10 µM; in assay [3] it was greater than 10 µM; in assay [5] it was greater than 10 µM; at Thromboxane A2 receptor it was greater than 10 µM; at D(3) dopamine receptor, greater than 30 µM. The compound also came in with an AC50 in assay [6] greater than 10 µM.

As to `C=CCN1C[C@H](C(=O)N(CCCN(C)C)C(=O)NCC)C[C@@H]2c3cccc4[nH]cc(c34)C[C@H]21` [CABERGOLINE], the half-maximal activity concentration (AC50) in assay [7] was greater than 10 µM; in assay [2], greater than 30 µM; in assay [3] it was greater than 10 µM; in assay [4], 23.4 µM; in assay [5] it was greater than 30 µM; at Thromboxane A2 receptor, greater than 10 µM. In addition, the AC50 at Cannabinoid receptor 1 was greater than 30 µM; at D(3) dopamine receptor, 0.0076 µM; in [6], greater than 30 µM.

At Adenosine receptor A1, `CC(=O)OCC1=C(C(=O)O)N2C(=O)[C@@H](NC(=O)[C@H](N)c3ccccc3)[C@H]2SC1` [CEPHALOGLYCIN] registered an AC50 greater than 30 µM.

`NC1CCN(c2c(F)cc3c(=O)c(C(=O)O)cn(C4CC4)c3c2Cl)C1` (stereo not drawn) [CLINAFLOXACIN] displayed an AC50 in assay [2] greater than 300 µM.

For `CN(C)CCC=C1c2ccccc2C=Cc2ccccc21` [CYCLOBENZAPRINE], the half-maximal activity concentration (AC50) is greater than 30 µM in assay [8]; greater than 10 µM in [1]; greater than 10 µM in assay [7]; greater than 30 µM in assay [3]; greater than 30 µM in assay [5]; greater than 30 µM at Thromboxane A2 receptor. For the same compound, the concentration at half-maximal activity (AC50) was greater than 30 µM at Cannabinoid receptor 1 and 1.1 µM on D(3) dopamine receptor.

On to `CCOc1ccc(Cc2cc([C@@H]3O[C@H](CO)[C@@H](O)[C@H](O)[C@H]3O)ccc2Cl)cc1` [DAPAGLIFLOZIN], for which the AC50 was greater than 10 µM in assay [7]; greater than 30 µM in assay [3]; greater than 30 µM in [5]; greater than 30 µM on Thromboxane A2 receptor; greater than 30 µM at D(3) dopamine receptor.

Take `CN(C)CC/C=C1\c2ccccc2CSc2ccccc21` [DOTHIEPIN]: the AC50 in [1] was greater than 30 µM; in [7], greater than 30 µM; in [3], greater than 30 µM; on Thromboxane A2 receptor it was greater than 30 µM; at Cannabinoid receptor 1, greater than 30 µM; on D(3) dopamine receptor, 3 µM. In [6], this compound showed an AC50 of 1.4 µM.

As for `COc1ccc(C(=O)Nc2ccccc2CCC2CCCCN2C)cc1` (stereo not drawn) [ENCAINIDE], the AC50 in assay [8] was greater than 30 µM; in assay [1], greater than 10 µM; in assay [7], greater than 10 µM; in [3] it was greater than 30 µM; in [4], greater than 10 µM; in [5] it was greater than 30 µM. For the same compound, the half-maximal activity concentration (AC50) on Thromboxane A2 receptor was greater than 30 µM; at Cannabinoid receptor 1, greater than 30 µM; on D(3) dopamine receptor it was greater than 10 µM; in assay [6], greater than 10 µM.

At Adenosine receptor A1, `Clc1cc(Cl)c(OCC#CI)cc1Cl` [HALOPROGIN] came in with a half-maximal activity concentration (AC50) of 15.4 µM.

For `COc1ccccc1N1CCN(CC(O)COc2cccc3ccccc23)CC1` (stereo not drawn) [NAFTOPIDIL], the AC50 in assay [1] is greater than 30 µM; in [7], greater than 30 µM; in assay [5], 13 µM; at Adenosine receptor A1, greater than 30 µM; at Thromboxane A2 receptor it was greater than 30 µM; at Cannabinoid receptor 1, greater than 30 µM. Moreover, the values for the AC50 (at D(3) dopamine receptor; in assay [6]) were 0.42 µM and greater than 30 µM, respectively.

As for `CC(C)(C)C(=O)OCOC(=O)[C@@H]1N2C(=O)[C@@H](NC(=O)[C@H](N)c3ccccc3)[C@H]2SC1(C)C` [PIVAMPICILLIN], the concentration at half-maximal activity (AC50) on Adenosine receptor A1 was greater than 30 µM.

As for `O=[N+]([O-])c1cn2c(n1)OC[C@@H](OCc1ccc(OC(F)(F)F)cc1)C2` [PRETOMANID], the half-maximal activity concentration (AC50) in assay [7] was greater than 10 µM; in assay [3] it was greater than 30 µM; in [4] it was greater than 10 µM; in assay [5] it was greater than 30 µM; at Thromboxane A2 receptor it was greater than 30 µM; on D(3) dopamine receptor, greater than 10 µM.

Compound `O=C(Oc1ccc2c(c1)CCCN2C(=O)C(Cl)Cl)c1ccco1` [QUINFAMIDE] had an AC50 at Adenosine receptor A1 of 29.4 µM.

Regarding `CCCCS(=O)(=O)N[C@@H](Cc1ccc(OCCCCC2CCNCC2)cc1)C(=O)O` [TIROFIBAN], on Adenosine receptor A1, the AC50 is greater than 30 µM.

On Adenosine receptor A1, `C=CCCCCCCCCC(=O)O` [UNDECYLENIC ACID] had an AC50 greater than 30 µM.

Turning to `CCOc1ccccc1OCC1CNCCO1` (stereo not drawn) [VILOXAZINE], the AC50 in assay [8] is greater than 30 µM; in [1] it was greater than 10 µM; in assay [7], greater than 10 µM; in assay [3] it was greater than 30 µM; in [5], greater than 30 µM; on Thromboxane A2 receptor it was greater than 30 µM. Further, the values for the AC50 (at Cannabinoid receptor 1; at D(3) dopamine receptor; in assay [6]) were greater than 30 µM, greater than 10 µM and greater than 10 µM, respectively.

Consider `CN(C)CCc1c[nH]c2ccc(C[C@H]3COC(=O)N3)cc12` [ZOLMITRIPTAN], for which the AC50 in [1], in assay [7], in assay [2], in [3], in [4] and in assay [5] was greater than 30 µM in each case. Besides, the AC50 (on D(3) dopamine receptor; in [6]) was greater than 30 µM in each case.
